Data reported in US20230035763A1, “METHODS OF TREATING CANCER USING TUBULIN BINDING AGENTS” (BeyondSpring Pharnaceuticals, Inc., priority 2018, published 2023).

Experiments:
[1] = tested on: 43 human cancer cell lines (breast, lung, prostate, ovarian or CNS); assay: CellTiter-Blue cell viability assay, IC70, panel of human cancer cell lines; format: cell-based; conditions: 24 h treatment, then 48 h without plinabulin
Source text: Plinabulin is a tubulin targeted agent that binds near the colchicine site in β-tubulin and is being tested in a Phase 3 clinical study for the treatment of non-small cell lung cancer. The colchicine site is distinct from the binding site of taxanes (e.g. Paclitaxel and docetaxel), and binding site and other differences between tubulin targeted agents are often associated with differing effects on biological functions, disease outcomes and safety profiles. Additional indications are being considered for plinabulin so a model for selecting especially responsive patients would be of significant value. As a first step towards building this model, the in vitro activity of Plinabulin against 43 human cancer cell lines (breast, lung, prostate, ovarian or CNS), previously characterized for mRNA expression with the Affymetrix HGU133 Plus 2.0 array, was evaluated. Although screening for in vitro anticancer activity is typically performed with constant treatment of the agent for 48-72 hours, cells were treated for only 24 hours with plinabulin and then cultured for another 48 hours without plinabulin.
Typically anticancer activity is judged at the 50% effect level (50% reduction in viable tumor cells), but viable cell concentration are quantified here with a Cell Titer-Blue Assay to find the concentration causing a 70% reduction in the quantity of viable tumor cells (IC70). […]

[2] = tested on: A-172, SF-539, SNB-78, U-251, U-87MG; assay: CellTiter-Blue cell viability assay, CNS cell lines (Active group); format: cell-based, human; parameters: key: Active: active (IC70<1 µM); Inactive: inactive (IC70>1 µM, and usually >10 µM); conditions: CNS: A-172, SF-539, SNB-78, U-251, U-87MG; IC70 class, 24 h treatment + 48 h compound-free
Procedure: (§1) Working stock solution of the test compounds (Plinabulin, Docetaxel and Paclitaxel) were prepared in DMSO at a concentration of 3.14 (Plinabulin) or 3.3 mM (Docetaxel and Paclitaxel), and small aliquots were stored at −20° C. On each day of an experiment, a frozen aliquot of the working stock solutions was thawed and stored at room temperature prior to and during treatment. All liquid handling steps were done by the Tecan Freedom EVO 200 platform. First, serial half-log dilutions of the DMSO working stock solution were made in DMSO. The DMSO dilutions were then diluted 1:22 into cell culture medium in an intermediate dilution plate. Finally, 10 μl taken from the intermediate dilution plate was transferred to 140 μl/well of the final assay plate. […] Briefly, cells were harvested from exponential phase cultures, counted and plated in 96-well flat-bottom microtiter plates at a cell density of 4,000 to 60,000 cells/well dependent on the cell line's growth rate. […] After the initial application of the compounds for 24 hours, the compound-containing media was exchanged to media without compounds and incubation was continued for a further 48 hours until read-out. […] Following incubation with CellTiter-Blue® reagent for up to four hours, fluorescence (FU) was measured by using the Enspire Multimode Plate Reader (excitation λ=570 nm, emission λ=600 nm). […]

[3] = tested on: Calu-, LXFL1121, NCI-H460; assay: CellTiter-Blue cell viability assay, lung cell lines (Active group); format: cell-based, human; parameters: key: Active: active (IC70<1 µM); Inactive: inactive (IC70>1 µM, and usually >10 µM); conditions: IC70 class, 24 h treatment + 48 h compound-free
Procedure: as §1

[4] = tested on: LXFA289, LXFA526, LXFA629, LXFA983, A549, HOP-62, NCI-H322M, NCI-H226, SK-MES-1, A427, NCI-H1299, H2171, SCLC-21H; assay: CellTiter-Blue cell viability assay, lung cell lines (Inactive group); format: cell-based, human; parameters: key: Active: active (IC70<1 µM); Inactive: inactive (IC70>1 µM, and usually >10 µM); conditions: Lung: LXFA289, LXFA526, LXFA629, LXFA983, A549, HOP-62, NCI-H322M, IC70 class, 24 h treatment + 48 h compound-free
Procedure: as §1

[5] = tested on: CAL-51, HS578T, JIMT-1, MCF10A, MX1; assay: CellTiter-Blue cell viability assay, breast cell lines (Active group); format: cell-based, human; parameters: key: Active: active (IC70<1 µM); Inactive: inactive (IC70>1 µM, and usually >10 µM); conditions: Breast: CAL-51, HS578T, IC70 class, 24 h treatment + 48 h compound-free
Procedure: as §1

[6] = tested on: MAXFTN401, BT-474, HCC-1937, MCF7, MDA-MB-231; assay: CellTiter-Blue cell viability assay, breast cell lines (Inactive group); format: cell-based, human; parameters: key: Active: active (IC70<1 µM); Inactive: inactive (IC70>1 µM, and usually >10 µM); conditions: Breast: MAXFTN401, BT-474, HCC-1937, MCF7, MDA-MB-231; IC70 class, 24 h treatment + 48 h compound-free
Procedure: as §1

[7] = tested on: A2780, EFO-21, EFO-27, OVCAR3; assay: CellTiter-Blue cell viability assay, ovarian cell lines (Active group); format: cell-based, human; parameters: key: Active: active (IC70<1 µM); Inactive: inactive (IC70>1 µM, and usually >10 µM); conditions: Ovarian: A2780, EFO-21, EFO-27, OVCAR3; IC70 class, 24 h treatment + 48 h compound-free
Procedure: as §1

[8] = tested on: OVXF899, OVXF1023; assay: CellTiter-Blue cell viability assay, ovarian cell lines (Inactive group); format: cell-based, human; parameters: key: Active: active (IC70<1 µM); Inactive: inactive (IC70>1 µM, and usually >10 µM); conditions: IC70 class, 24 h treatment + 48 h compound-free
Procedure: as §1

[9] = tested on: 22Rv1, DU-145, LNCaP, PC-3M; assay: CellTiter-Blue cell viability assay, prostate cell lines (Active group); format: cell-based, human; parameters: key: Active: active (IC70<1 µM); Inactive: inactive (IC70>1 µM, and usually >10 µM); conditions: Prostate: 22Rv1, DU-145, LNCaP, IC70 class, 24 h treatment + 48 h compound-free
Procedure: as §1

[10] = tested on: PC-3; assay: CellTiter-Blue cell viability assay, prostate cell line (Inactive group); format: cell-based, human; parameters: key: Active: active (IC70<1 µM); Inactive: inactive (IC70>1 µM, and usually >10 µM); conditions: Prostate: PC-3; IC70 class, 24 h treatment + 48 h compound-free
Procedure: as §1

CC(C)(C)c1[nH]cnc1/C=c1\[nH]c(=O)/c(=C/c2ccccc2)[nH]c1=O [Plinabulin]
IC70 (concentration causing a 70% reduction in the quantity of viable tumor cells) ([1]; 21 cell lines of the Active category): < 1.0 µM
IC70 (concentration causing a 70% reduction in the quantity of viable tumor cells) ([1]; 91% of the cell lines of the Inactive category): > 9.5 µM
Plinabulin Activity [2]: Active
Plinabulin Activity [3]: Active
Plinabulin Activity [4]: Inactive
Plinabulin Activity [5]: Active
Plinabulin Activity [6]: Inactive
Plinabulin Activity [7]: Active
Plinabulin Activity [8]: Inactive
Plinabulin Activity [9]: Active
Plinabulin Activity [10]: Inactive
